Test system: OVCAR-8 complex spheroid, growth inhibition
Experiment: Anticancer human tumor OVCAR-8 cell line growth inhibition [Asc];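 further: spheroids exposed to agents for 7 days before readout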;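 on viability, T/C: percent viability relative to DMSO vehicle wells taken as 100%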
Details: for IC50: curve of first compound; for viability, T/C: stronger effect = lower value; active means viability on the fitted dose curve at most 10% of control; inactive means the rest
Method in brief: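 Tumor cells were grown as complex spheroids with human endothelial cells (HUVEC) and human mesenchymal stem cells as stroma. Agents were tested alone and in combination, in half-log steps down from the clinical Cmax, or from 10 microM where Cmax was unknown.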

[1] = second compound 0.00949 µM, first compound 0.0316 µM
[2] = second compound 0.00949 µM, first compound 0.1 µM
[3] = second compound 0.00949 µM, first compound 0.316 µM
[4] = second compound 0.00949 µM, first compound 1 µM
[5] = second compound 0.00949 µM, first compound 3.16 µM
[6] = second compound 0.00949 µM, first compound 10 µM
[7] = second compound 0.03 µM, first compound 0.0316 µM
[8] = second compound 0.03 µM, first compound 0.1 µM
[9] = second compound 0.03 µM, first compound 0.316 µM
[10] = second compound 0.03 µM, first compound 1 µM
[11] = second compound 0.03 µM, first compound 3.16 µM
[12] = second compound 0.03 µM, first compound 10 µM
[13] = second compound 0.0949 µM, first compound 0.0316 µM
[14] = second compound 0.0949 µM, first compound 0.1 µM
[15] = second compound 0.0949 µM, first compound 0.316 µM
[16] = second compound 0.0949 µM, first compound 1 µM
[17] = second compound 0.0949 µM, first compound 3.16 µM
[18] = second compound 0.0949 µM, first compound 10 µM
[19] = second compound 0.3 µM, first compound 0.0316 µM
[20] = second compound 0.3 µM, first compound 0.1 µM
[21] = second compound 0.3 µM, first compound 0.316 µM
[22] = second compound 0.3 µM, first compound 1 µM
[23] = second compound 0.3 µM, first compound 3.16 µM
[24] = second compound 0.3 µM, first compound 10 µM
[25] = second compound 0.949 µM, first compound 0.0316 µM
[26] = second compound 0.949 µM, first compound 0.1 µM
[27] = second compound 0.949 µM, first compound 0.316 µM
[28] = second compound 0.949 µM, first compound 1 µM
[29] = second compound 0.949 µM, first compound 3.16 µM
[30] = second compound 0.949 µM, first compound 10 µM
[31] = second compound 3 µM, first compound 0.0316 µM
[32] = second compound 3 µM, first compound 0.1 µM
[33] = second compound 3 µM, first compound 0.316 µM
[34] = second compound 3 µM, first compound 1 µM
[35] = second compound 3 µM, first compound 3.16 µM
[36] = second compound 3 µM, first compound 10 µM

C=C(F)C(=O)N1CCN(c2nc(OCC3CCCN3C)nc3c2CCN(c2cccc4cccc(Cl)c24)C3)CC1CC#N (stereo unspecified) + CCN1C(C(=O)NC23CCC(C(=O)O)(CC2)CC3)C(c2cccc(Cl)c2F)C2(C(=O)Nc3cc(Cl)ccc32)C12CCCCC2
inactive: viability, T/C [1] 115% | viability, T/C [2] 86.5% | viability, T/C [3] 103% | viability, T/C [4] 119% | viability, T/C [5] 38% | viability, T/C [7] 96.6% | viability, T/C [8] 90.2% | viability, T/C [9] 92.3% | viability, T/C [10] 107% | viability, T/C [11] 38% | viability, T/C [13] 93.1% | viability, T/C [14] 98.6% | viability, T/C [15] 93.9% | viability, T/C [16] 116% | viability, T/C [17] 42.3% | viability, T/C [19] 83.8% | viability, T/C [20] 103% | viability, T/C [21] 105% | viability, T/C [22] 121% | viability, T/C [23] 40.6% | viability, T/C [25] 90.3% | viability, T/C [26] 96.8% | viability, T/C [27] 102% | viability, T/C [28] 126% | viability, T/C [29] 35.9% | viability, T/C [31] 111% | viability, T/C [32] 97.3% | viability, T/C [33] 140% | viability, T/C [34] 128% | viability, T/C [35] 40.3%
2.49 µM: IC50 (second compound 0.949 µM)
2.5 µM: IC50 (second compound 0.03 µM)
2.74 µM: IC50 (second compound 3 µM)
2.58 µM: IC50 (second compound 0.00949 µM)
2.66 µM: IC50 (second compound 0.3 µM)
2.72 µM: IC50 (second compound 0.0949 µM)
active: viability, T/C [6] 1.01% | viability, T/C [12] 0.56% | viability, T/C [18] 0.29% | viability, T/C [24] 0.7% | viability, T/C [30] 1.05% | viability, T/C [36] 0.52%

C=CC(=O)N1CCN(c2nc(=O)n(-c3c(C)ccnc3C(C)C)c3nc(-c4c(O)cccc4F)c(F)cc23)C(C)C1 (stereo unspecified) + CCN1C(C(=O)NC23CCC(C(=O)O)(CC2)CC3)C(c2cccc(Cl)c2F)C2(C(=O)Nc3cc(Cl)ccc32)C12CCCCC2
> 10 µM: IC50 (second compound 0.00949 µM) | IC50 (second compound 0.03 µM) | IC50 (second compound 0.0949 µM) | IC50 (second compound 0.3 µM) | IC50 (second compound 0.949 µM) | IC50 (second compound 3 µM)
inactive: viability, T/C [1] 94.2% | viability, T/C [2] 89.9% | viability, T/C [3] 94.7% | viability, T/C [4] 81.7% | viability, T/C [5] 89.3% | viability, T/C [6] 100% | viability, T/C [7] 101% | viability, T/C [8] 90.6% | viability, T/C [9] 85.3% | viability, T/C [10] 76.8% | viability, T/C [11] 102% | viability, T/C [12] 102% | viability, T/C [13] 101% | viability, T/C [14] 78.6% | viability, T/C [15] 88% | viability, T/C [16] 74.2% | viability, T/C [17] 86.1% | viability, T/C [18] 116% | viability, T/C [19] 88% | viability, T/C [20] 96.7% | viability, T/C [21] 86.3% | viability, T/C [22] 93.7% | viability, T/C [23] 88.2% | viability, T/C [24] 106% | viability, T/C [25] 87.3% | viability, T/C [26] 103% | viability, T/C [27] 102% | viability, T/C [28] 90.8% | viability, T/C [29] 104% | viability, T/C [30] 115% | viability, T/C [31] 124% | viability, T/C [32] 103% | viability, T/C [33] 101% | viability, T/C [34] 106% | viability, T/C [35] 120% | viability, T/C [36] 137%

CNC(C)C(=O)NC1CN(S(=O)(=O)c2cccc(S(=O)(=O)N3CCC4CCC(C(=O)NC(c5ccccc5)c5ccccc5)N4C(=O)C(NC(=O)C(C)NC)C3)c2)CCC2CCC(C(=O)NC(c3ccccc3)c3ccccc3)N2C1=O (stereo unspecified) + CCN1C(C(=O)NC23CCC(C(=O)O)(CC2)CC3)C(c2cccc(Cl)c2F)C2(C(=O)Nc3cc(Cl)ccc32)C12CCCCC2
inactive: viability, T/C (second compound 0.00949 µM, first compound 0.00316 µM) 100% | viability, T/C (second compound 0.00949 µM, first compound 0.01 µM) 83.8% | viability, T/C [1] 91.8% | viability, T/C [2] 76.4% | viability, T/C [3] 75.4% | viability, T/C [4] 71.3% | viability, T/C (second compound 0.03 µM, first compound 0.00316 µM) 107% | viability, T/C (second compound 0.03 µM, first compound 0.01 µM) 99.3% | viability, T/C [7] 94% | viability, T/C [8] 88.8% | viability, T/C [9] 75% | viability, T/C [10] 83.3% | viability, T/C (second compound 0.0949 µM, first compound 0.00316 µM) 94.7% | viability, T/C (second compound 0.0949 µM, first compound 0.01 µM) 98.1% | viability, T/C [13] 90.9% | viability, T/C [14] 79% | viability, T/C [15] 74.4% | viability, T/C [16] 63.6% | viability, T/C (second compound 0.3 µM, first compound 0.00316 µM) 112% | viability, T/C (second compound 0.3 µM, first compound 0.01 µM) 101% | viability, T/C [19] 86.7% | viability, T/C [20] 65.9% | viability, T/C [21] 68.6% | viability, T/C [22] 70.1% | viability, T/C (second compound 0.949 µM, first compound 0.00316 µM) 91.7% | viability, T/C (second compound 0.949 µM, first compound 0.01 µM) 89.1% | viability, T/C [25] 99% | viability, T/C [26] 76.7% | viability, T/C [27] 64.3% | viability, T/C [28] 66.8% | viability, T/C (second compound 3 µM, first compound 0.00316 µM) 118% | viability, T/C (second compound 3 µM, first compound 0.01 µM) 102% | viability, T/C [31] 115% | viability, T/C [32] 88% | viability, T/C [33] 84.5% | viability, T/C [34] 88%
> 1 µM: IC50 (second compound 0.00949 µM) | IC50 (second compound 0.03 µM) | IC50 (second compound 0.0949 µM) | IC50 (second compound 0.3 µM) | IC50 (second compound 0.949 µM) | IC50 (second compound 3 µM)
